# Reference: patent US20240174690A1, “ANNULATED 2-AMINO-3-CYANO THIOPHENES AND DERIVATIVES FOR THE TREATMENT OF CANCER” (BOEHRINGER INGELHEIM INTERNATIONAL GMBH, priority 2021, published 2024)
# Where two headings read alike, the source gives them in different places.
# Assays:
# MKN1 cells = assay: MKN1 CTG proliferation assay (120 h) (gastric cancer, wt amplified); assay type: cell-based; settings: Homo sapiens
# Summary of the method: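 MKN1 gastric cancer cells (200–500 per well, RPMI + 10% FCS) given a logarithmic compound dose series and incubated 120 h. Viability by CellTiter-Glo luminescence as percent of DMSO controls. IC50 by four-parameter non-linear regression.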
# [1] = Metabolic (microsomal) stability assay, human liver microsomes (HLM); assay type: in vitro ADME; settings: predicted clearance as percent of liver blood flow, 1 μM
# Summary of the method: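 LC-MS/MS tracked parent disappearance at 0, 5, 15, 30 and 60 min in NADPH-initiated incubations with 1 mg/mL human microsomal protein and 1 μM compound at 37°C, pH 7.5. First-order fits gave intrinsic clearance, which was scaled up and reported as % QH. NADPH-free controls were also run.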
# [2] = Solubility measurement (DMSO solution method), McIlvaine buffer pH 4.5 or 6.8; assay type: physicochemical; settings: aqueous buffer, kinetic from dmso stock, DMSO stock diluted to 250 μM, 24 h shaking at ambient temperature
# Summary of the method: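 DMSO stock diluted into McIlvaine buffer, pH 4.5 or 6.8, to 250 µM final, shaken 24 h at ambient temperature. Precipitate removed by filtration; filtrate quantified by LC-UV against a fully dissolved reference in acetonitrile/water 1:1.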
# [3] = tested on: KRAS G12D-dependent Ba/F3 cells; assay: Ba/F3 proliferation assay, KRAS G12D; assay type: cell-based; settings: Mus musculus, BaF3, 72 h, AlamarBlue
# Summary of the method: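 Ba/F3 cells were retrovirally transduced with KRAS G12 mutant vectors, puromycin-selected (1 μg/mL) and grown without IL-3 to make them KRAS-dependent. Compounds were tested in technical duplicates, viability was read by AlamarBlue fluorescence, and values came from curve fitting.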
# [4] = McIlvaine buffer pH 4.5, read-out: solubility pH 4.5
# [5] = McIlvaine buffer pH 6.8, read-out: solubility pH 6.8
# [6] = MKN-1, assay 3, CTG 120 h, read-out: MKN1 (assay 3) IC50
Structure (SMILES),"IC50 (MKN1 cells; MKN-1, assay 2, CTG 120 h, read-out: MKN1 (assay 2) IC50) [nM]",HLM QH [1] [%],"solubility at 24 h [2, 4] [µg/mL]","solubility at 24 h [2, 5] [µg/mL]",IC50 [3] [nM],IC50 (MKN1 cells; [6]) [nM]
C[C@H](Oc1cc(-n2ccc(C(=O)N3CCCC3)n2)nc(-c2noc3c2CCC[C@@]32CCCc3sc(N)c(C#N)c32)n1)[C@@H]1CCCN1C [II-19],–,30,89,< 1,10,47
CO[C@H]1CCN(C)[C@@H]1[C@H](C)Oc1cc(-n2ccc(C(=O)N[C@@H]3CCOC3)n2)nc(-c2onc3c2CCC[C@@]32CCCc3sc(N)c(C#N)c32)n1 [I-53],–,56,> 152,5,12,48
CO[C@H]1CCN(C)[C@@H]1[C@H](C)Oc1cc(-n2ccc(C(=O)N[C@H]3CCOC3)n2)nc(-c2onc3c2CCC[C@@]32CCCc3sc(N)c(C#N)c32)n1 [I-54],–,52,16,< 1,7,26

# The next lines start with the values.
"IC50 (MKN1 cells; MKN-1, assay 2, CTG 120 h, read-out: MKN1 (assay 2) IC50) [nM]",HLM QH [1] [%],"solubility at 24 h [2, 4] [µg/mL]","solubility at 24 h [2, 5] [µg/mL]",IC50 [3] [nM],IC50 (MKN1 cells; [6]) [nM],Structure (SMILES)
621,39,> 147,< 1,34,–,C[C@H](Oc1cc(N2CCN(C)C3(CC3)C2)nc(-c2onc3c2CCC[C@@]32CCCc3sc(N)c(C#N)c32)n1)[C@@H]1C[C@@H](F)CN1C [I-39]
–,<24,> 158,> 161,22,32,C[C@H](Oc1cc(-n2ccc(C(=O)N(C)C3COC3)n2)nc(-c2onc3c2CCC[C@@]32CCCc3sc(N)c(C#N)c32)n1)[C@@H]1CCCN1C [I-60]
